In BindingDB's records for doi:10.1016/j.ejmech.2021.113604 (China Pharmaceutical University, 2021):

Key:
[1] = biological target: Heat shock protein HSP 90-alpha (Homo sapiens, UniProt P07900); experiment: Binding affinity to His-tagged human N-terminal HSP90alpha (1 to 236 residues) expressed in Escherichia coli BL21 (DE3) assessed as dissociation constant at 1.1 to 30 uM measured by BLI assay
Endoplasmin = Endoplasmin (Canis lupus familiaris, UniProt P41148); experiment: Binding affinity to GST-tagged dog GRP94 (69 to 337 residues) expressed in Escherichia coli BL21 (DE3) assessed as dissociation constant at 0.37 to 10 uM measured by BLI assay
Chain of Endoplasmin (P41148 whole entry, the tested form may be a part): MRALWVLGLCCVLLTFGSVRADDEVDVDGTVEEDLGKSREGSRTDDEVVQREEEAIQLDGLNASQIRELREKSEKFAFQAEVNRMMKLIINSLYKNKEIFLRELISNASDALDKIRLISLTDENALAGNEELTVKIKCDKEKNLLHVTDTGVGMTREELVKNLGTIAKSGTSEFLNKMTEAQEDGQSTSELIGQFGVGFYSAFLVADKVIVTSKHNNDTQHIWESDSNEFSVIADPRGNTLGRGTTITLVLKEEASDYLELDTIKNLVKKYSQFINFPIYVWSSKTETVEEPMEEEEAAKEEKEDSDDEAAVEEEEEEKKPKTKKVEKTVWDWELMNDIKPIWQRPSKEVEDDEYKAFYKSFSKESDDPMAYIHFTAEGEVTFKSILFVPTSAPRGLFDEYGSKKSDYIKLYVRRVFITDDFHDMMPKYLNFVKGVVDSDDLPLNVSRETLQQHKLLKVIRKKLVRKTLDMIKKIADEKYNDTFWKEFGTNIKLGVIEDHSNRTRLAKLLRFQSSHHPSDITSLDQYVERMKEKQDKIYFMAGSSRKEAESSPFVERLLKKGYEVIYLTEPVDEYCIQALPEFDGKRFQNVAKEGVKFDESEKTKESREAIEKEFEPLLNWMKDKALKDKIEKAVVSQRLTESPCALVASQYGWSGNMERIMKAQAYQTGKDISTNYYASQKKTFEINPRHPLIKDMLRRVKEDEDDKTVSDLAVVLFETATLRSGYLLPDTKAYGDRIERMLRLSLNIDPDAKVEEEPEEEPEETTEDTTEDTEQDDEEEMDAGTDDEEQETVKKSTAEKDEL

`CCCCC#Cc1ccc(N[C@H]2CC[C@H](O)CC2)c(C(N)=O)c1` showed a koff [1] of 0.114 s⁻¹ and a koff (Endoplasmin) of 0.0284 s⁻¹.
